Source: BigSolDB 2.1

O.O=C1NC(=O)C(=O)C(=O)N1
solubility (mole fraction)
Details	293.15 K	298.15 K	303.15 K	308.15 K	313.15 K	318.15 K	323.15 K
in THF	0.046	0.0549	0.0638	0.0739	0.084	0.0954	0.107
in acetone	0.0128	0.0132	0.0136	0.014	0.0143	0.0146	0.015
in ethanol	0.0856	0.0962	0.107	0.119	0.131	0.143	0.155
in ethylene glycol	0.0113	0.0143	0.0172	0.0206	0.024	0.0283	0.0327
in methanol	0.105	0.117	0.129	0.142	0.155	0.168	0.181
in water	0.0377	0.0403	0.0429	0.0456	0.0482	0.051	0.0539
